Measurements taken from patent US9932331B2, “Phenyl tetrahydroisoquinoline compound substituted with heteroaryl” (TAISHO PHARMACEUTICAL CO., LTD, priority 2014, dated 2018).
Counter-ions that a name gives are not always drawn.

Biological target: T1, human NHE3 (Homo sapiens, UniProt P48764)
T1 sequence (P48764 26-834): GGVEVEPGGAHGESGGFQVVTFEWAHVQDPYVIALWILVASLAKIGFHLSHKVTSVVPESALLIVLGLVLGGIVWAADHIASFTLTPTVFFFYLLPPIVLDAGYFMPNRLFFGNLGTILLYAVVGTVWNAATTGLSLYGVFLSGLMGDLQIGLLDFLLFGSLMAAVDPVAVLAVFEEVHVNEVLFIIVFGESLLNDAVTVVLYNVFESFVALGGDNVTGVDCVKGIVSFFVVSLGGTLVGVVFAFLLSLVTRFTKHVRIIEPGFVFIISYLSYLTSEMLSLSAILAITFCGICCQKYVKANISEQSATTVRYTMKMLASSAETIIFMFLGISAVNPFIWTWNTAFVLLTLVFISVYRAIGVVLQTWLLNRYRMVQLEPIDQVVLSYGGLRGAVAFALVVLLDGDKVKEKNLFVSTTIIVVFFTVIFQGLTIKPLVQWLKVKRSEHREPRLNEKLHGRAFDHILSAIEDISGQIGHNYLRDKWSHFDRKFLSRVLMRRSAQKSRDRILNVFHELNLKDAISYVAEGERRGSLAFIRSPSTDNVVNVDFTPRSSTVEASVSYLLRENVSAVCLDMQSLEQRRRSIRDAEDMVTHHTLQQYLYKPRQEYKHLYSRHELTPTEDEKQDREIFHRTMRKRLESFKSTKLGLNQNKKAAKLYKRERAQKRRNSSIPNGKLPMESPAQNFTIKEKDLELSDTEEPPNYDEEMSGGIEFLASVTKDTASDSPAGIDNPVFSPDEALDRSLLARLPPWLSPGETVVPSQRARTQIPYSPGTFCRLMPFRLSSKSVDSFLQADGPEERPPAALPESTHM
Experiment: NHE3 inhibition test (recovery of intracellular pH in cell line stably expressing human NHE3)
Type: cell-based
Conditions: OK cells deficient in endogenous NHE stably expressing human NHE3; BCECF fluorescence, initial rate of pH recovery; read-out: human NHE3 inhibitory activity IC50
Summary of the method: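 IC50 is the concentration halving the initial rate of Na-triggered intracellular pH recovery, tracked by BCECF fluorescence, in NH4Cl-acidified cells. Cells: NHE-deficient OK line stably transfected with human NHE3; compound added in Na-free pH 7.4 buffer.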

Row | IC50 [nM] | SMILES
1 | 3.8 | CN1Cc2c(Cl)cc(Cl)cc2[C@H](c2cccc(-c3cnc(NCCOCCOCCOCCNC(=O)NCCCCNC(=O)NCCOCCOCCOCCNc4ncc(-c5cccc([C@@H]6CN(C)Cc7c(Cl)cc(Cl)cc76)c5)cn4)nc3)c2)C1 [Example 7-38, 1,1′-Butane-1,4-diylbis(3-{2-[2-(2-{2-[(5-{3-[(4S)-6,8-dichloro-2-methyl-1,2,3,4-tetrahydroisoquinolin-4-yl]phenyl}pyrimidin-2-yl)amino]ethoxy}ethoxy)ethoxy]ethyl}urea) hydrochloride]
2 | 257 | CN1Cc2c(Cl)cc(Cl)cc2[C@H](c2cccc(-c3cn[nH]c3)c2)C1 [Example 1-4, (4S)-6,8-dichloro-2-methyl-4-[3-(1H-pyrazol-4-yl)phenyl]-1,2,3,4-tetrahydroisoquinoline]
3 | 4.7 | CN1Cc2c(Cl)cc(Cl)cc2[C@H](c2cccc(-c3cc(OCCOCCOCCOCCNC(=O)CCCCC(=O)NCCOCCOCCOCCOc4cc(-c5cccc([C@@H]6CN(C)Cc7c(Cl)cc(Cl)cc76)c5)ncn4)ncn3)c2)C1 [Example 8-23, N,N′-Bis{2-[2-(2-{2-[(6-{3-[(4S)-6,8-dichloro-2-methyl-1,2,3,4-tetrahydroisoquinolin-4-yl]phenyl}pyrimidin-4-yl)oxy]ethoxy}ethoxy)ethoxy]ethyl}hexanediamide hydrochloride]
4 | 3.4 | CN1Cc2c(Cl)cc(Cl)cc2[C@H](c2cccc(-c3nnc(CCOCCOCCOCCNC(=O)[C@@H](O)[C@H](O)[C@H](O)[C@@H](O)C(=O)NCCOCCOCCOCCc4nnc(-c5cccc([C@@H]6CN(C)Cc7c(Cl)cc(Cl)cc76)c5)[nH]4)[nH]3)c2)C1 [Example 8-24, (2R,3S,4R,5S)-N,N′-Bis[2-(2-{2-[2-(5-{3-[(4S)-6,8-dichloro-2-methyl-1,2,3,4-tetrahydroisoquinolin-4-yl]phenyl}-4H-1,2,4-triazol-3-yl)ethoxy]ethoxy}ethoxy)ethyl]-2,3,4,5-tetrahydroxyhexanediamide hydrochloride]
5 | 217 | CN1Cc2c(Cl)cc(Cl)cc2[C@H](c2cccc(-c3ccncc3)c2)C1 [Example 1-1, (4S)-6,8-Dichloro-2-methyl-4-[3-(pyridin-4-yl)phenyl]-1,2,3,4-tetrahydroisoquinoline]
6 | 2.2 | CN1Cc2c(Cl)cc(Cl)cc2[C@H](c2cccc(-c3cc(NCCOCCOCCOCCNC(=O)[C@@H](O)[C@H](O)[C@H](O)[C@@H](O)C(=O)NCCOCCOCCOCCNc4cc(-c5cccc([C@@H]6CN(C)Cc7c(Cl)cc(Cl)cc76)c5)ncn4)ncn3)c2)C1 [Example 8-26, (2R,3S,4R,5S)-N,N′-Bis{2-[2-(2-{2-[(6-{3-[(4S)-6,8-dichloro-2-methyl-1,2,3,4-tetrahydroisoquinolin-4-yl]phenyl}pyrimidin-4-yl)amino]ethoxy}ethoxy)ethoxy]ethyl}-2,3,4,5-tetrahydroxyhexanediamide hydrochloride]
7 | 373 | CN1Cc2c(Cl)cc(Cl)cc2[C@H](c2cccc(-c3ccccn3)c2)C1 [Example 1-6, (4S)-6,8-Dichloro-2-methyl-4-[3-(pyridin-2-yl)phenyl]-1,2,3,4-tetrahydroisoquinoline trifluoroacetate]
8 | 21.4 | CN1Cc2c(Cl)cc(Cl)cc2[C@H](c2cccc(-c3cn(CCOCCOCCOCCNC(=O)NCCOCCOCCOCCn4cc(-c5cccc([C@@H]6CN(C)Cc7c(Cl)cc(Cl)cc76)c5)nn4)nn3)c2)C1 [Example 7-36, 1,3-Bis[2-(2-{2-[2-(4-{3-[(4S)-6,8-dichloro-2-methyl-1,2,3,4-tetrahydroisoquinolin-4-yl]phenyl}-1H-1,2,3-triazol-1-yl)ethoxy]ethoxy}ethoxy)ethyl]urea hydrochloride]
9 | 217 | CN1Cc2c(Cl)cc(Cl)cc2[C@H](c2cccc(-c3cccnc3)c2)C1 [Example 1-2, (4S)-6,8-Dichloro-2-methyl-4-[3-(pyridin-3-yl)phenyl]-1,2,3,4-tetrahydroisoquinoline trifluoroacetate]
10 | 13.9 | CN1Cc2c(Cl)cc(Cl)cc2[C@H](c2cccc(-c3cc(NCCOCCOCCNC(=O)Nc4ccc(NC(=O)NCCOCCOCCNc5cc(-c6cccc([C@@H]7CN(C)Cc8c(Cl)cc(Cl)cc87)c6)ncn5)cc4)ncn3)c2)C1 [Example 7-14, 1,1′-Benzene-1,4-diylbis {3-[2-(2-{2-[(6-{3-[(4S)-6,8-dichloro-2-methyl-1,2,3,4-tetrahydroisoquinolin-4-yl]phenyl}pyrimidin-4-yl)amino]ethoxy}ethoxy)ethyl]urea} trifluoroacetate]
11 | 3.8 | CN1Cc2c(Cl)cc(Cl)cc2[C@H](c2cccc(-c3nnc(CCOCCOCCNC(=O)NCCCCNC(=O)NCCOCCOCCc4nnc(-c5cccc([C@@H]6CN(C)Cc7c(Cl)cc(Cl)cc76)c5)[nH]4)[nH]3)c2)C1 [Example 7-21, 1,1′-Butane-1,4-diylbis[3-(2-{2-[2-(5-{3-[(4S)-6,8-dichloro-2-methyl-1,2,3,4-tetrahydroisoquinolin-4-yl]phenyl}-4H-1,2,4-triazol-3-yl)ethoxy]ethoxy}ethyl)urea]diformate]
12 | 12 | CN1Cc2c(Cl)cc(Cl)cc2[C@H](c2cccc(-c3cnnc(NCCOCCOCCNC(=O)NCCCCNC(=O)NCCOCCOCCNc4cc(-c5cccc([C@@H]6CN(C)Cc7c(Cl)cc(Cl)cc76)c5)cnn4)c3)c2)C1 [Example 7-13, 1,1′-Butane-1,4-diylbis {3-[2-(2-(2-{2-[(5-{3-[(4S)-6,8-dichloro-2-methyl-1,2,3,4-tetrahydroisoquinolin-4-yl]phenyl}pyridazin-3-yl)amino]ethoxy}ethoxy)ethyl]urea}tetrahydrochloride]
13 | 75 | CN1Cc2c(Cl)cc(Cl)cc2[C@H](c2cccc(-c3cn(CCOCCOCCNC(=O)[C@H](O)[C@@H](O)C(=O)NCCOCCOCCn4cc(-c5cccc([C@@H]6CN(C)Cc7c(Cl)cc(Cl)cc76)c5)nn4)nn3)c2)C1 [Example 6-6, (2R,3R)—N,N′-Bis(2-{2-[2-(4-{3-[(4S)-6,8-dichloro-2-methyl-1,2,3,4-tetrahydroisoquinolin-4-yl]phenyl}-1H-1,2,3-triazol-1-yl)ethoxy]ethoxy}ethyl)-2,3-dihydroxybutanediamide hydrochloride]
14 | 89.3 | CN1Cc2c(Cl)cc(Cl)cc2[C@H](c2cccc(-c3nn[nH]n3)c2)C1 [Example 2-1, (4S)-6,8-dichloro-2-methyl-4-[3-(2H-tetrazol-5-yl)phenyl]-1,2,3,4-tetrahydroisoquinoline]
15 | 14.9 | CN1Cc2c(Cl)cc(Cl)cc2[C@H](c2cccc(-c3ccc(NCCOCCOCCNC(=O)CCC(=O)NCCOCCOCCNc4ccc(-c5cccc([C@@H]6CN(C)Cc7c(Cl)cc(Cl)cc76)c5)cn4)nc3)c2)C1 [Example 8-1, N,N′-Bis[2-(2-{2-[(5-{3-[(4S)-6,8-dichloro-2-methyl-1,2,3,4-tetrahydroisoquinolin-4-yl]phenyl}pyridin-2-yl)amino]ethoxy}ethoxy)ethyl]butanediamide hydrochloride]
16 | 11.3 | CN1Cc2c(Cl)cc(Cl)cc2[C@H](c2cccc(-c3cn(CCOCCOCCOCCNC(=O)NCCCCCCNC(=O)NCCOCCOCCOCCn4cc(-c5cccc([C@@H]6CN(C)Cc7c(Cl)cc(Cl)cc76)c5)nn4)nn3)c2)C1 [Example 7-27, 1,1′-Hexane-1,6-diylbis {3-[2-(2-{2-[2-(4-{3-[(4S)-6,8-dichloro-2-methyl-1,2,3,4-tetrahydroisoquinolin-4-yl]phenyl}-1H-1,2,3-triazol-1-yl)ethoxy]ethoxy}ethoxy)ethyl]urea}hydrochloride]
17 | 2.4 | CN1Cc2c(Cl)cc(Cl)cc2[C@H](c2cccc(-c3cn(CCOCCOCCNC(=O)NCCCCNC(=O)NCCOCCOCCn4cc(-c5cccc([C@@H]6CN(C)Cc7c(Cl)cc(Cl)cc76)c5)nn4)nn3)c2)C1 [Example 6-1, 1,1′-Butane-1,4-diylbis[3-(2-{2-[2-(4-{3-[(4S)-6,8-dichloro-2-methyl-1,2,3,4-tetrahydroisoquinolin-4-yl]phenyl}-1H-1,2,3-triazol-1-yl)ethoxy]ethoxy}ethyl)urea]]
18 | 95.7 | CN1Cc2c(Cl)cc(Cl)cc2[C@H](c2cccc(-c3cn(C)cn3)c2)C1 [Example 1-18, (4S)-6,8-Dichloro-2-methyl-4-[3-(1-methyl-1H-imidazol-4-yl)phenyl]-1,2,3,4-tetrahydroisoquinoline]
19 | 173 | CN1Cc2c(Cl)cc(Cl)cc2[C@H](c2cccc(-c3cnccn3)c2)C1 [Example 1-14, (4S)-6,8-Dichloro-2-methyl-4-[3-(pyrazin-2-yl)phenyl]-1,2,3,4-tetrahydroisoquinoline trifluoroacetate]
